Target: T1, CRF1 receptor (Homo sapiens, UniProt P34998)
T1 sequence (P34998 24-415): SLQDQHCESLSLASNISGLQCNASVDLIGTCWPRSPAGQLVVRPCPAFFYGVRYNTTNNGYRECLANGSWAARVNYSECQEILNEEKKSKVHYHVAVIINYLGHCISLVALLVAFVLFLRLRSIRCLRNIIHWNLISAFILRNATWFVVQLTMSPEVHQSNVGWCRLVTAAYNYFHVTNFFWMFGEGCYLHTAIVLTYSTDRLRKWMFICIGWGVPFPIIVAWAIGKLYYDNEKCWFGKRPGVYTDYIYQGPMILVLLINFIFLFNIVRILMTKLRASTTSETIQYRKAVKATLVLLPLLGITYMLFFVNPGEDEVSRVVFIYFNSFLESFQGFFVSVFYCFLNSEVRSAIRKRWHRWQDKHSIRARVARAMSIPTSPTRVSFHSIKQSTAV
Assay: CRF1 receptor antagonist activity: kinetically derived affinity (Ki = k-1/k1), procedures of Fleck et al.
Assay type: binding
Conditions: kinetically derived affinity calculated from association (k1) and dissociation (k-1) rate constants; read-out: kinetic Ki
Experimental: As reported in Fleck et al. (J. Pharmacology and Experimental Therapeutics, 341(2):518-531, 2012) (hereinafter “Fleck et al.” and incorporated by reference in it's entirely) the activity of a CRF1 receptor antagonists may be expressed as the kinetically derived affinity (Ki) calculated from the association (k1) and dissociation (k−1) rate constants by the following equation: Ki=k−1/k1
Compound 1 was evaluated according to these procedures, and the kinetic Ki was determined to be 1.14.

Ki: 1.14 nM
SMILES: C#CCN(c1nc(-c2cc(C)c(OC)cc2Cl)c(C)s1)C(CC1CC1)c1ccc(CO)c(F)c1 (racemic) [Compound 1, racemic {4-[1-{[4-(2-chloro-4-methoxy-5-methylphenyl)-5-methyl-1,3-thiazol-2-yl](prop-2-yn-1-yl)amino}-2-cyclopropylethyl]-2-fluorophenyl}methanol]

Source: US12383536B2, “CRF receptor antagonists and methods of use” (Neurocrine Biosciences, Inc., priority 2019, dated 2025)
